Test results reported in US8222218B2, “Cyclopropanated carbohydrates” (Seton Hall University, priority 2008, dated 2012).
Read-outs that look alike come from different tables or passages of the source.

What was measured:
[1] = molecular target: T1, cloned, human D1 receptor (Homo sapiens, UniProt P21728); experiment: Radioligand competition binding assay, [3H]SCH23390
T1 construct: expressed in transfected cells
From the text: Receptor binding profiles were provided by the National Institute of Mental Health's Psychoactive Drug Screening Program, Contract # N01 MH32004 (NIMH PDSP) The NIMH PDSP is directed by Bryan L. Roth M. D., Ph.D. at the University of North Carolina at Chapel Hill and Project Officer Jamie Driscol at NIMH, Bethesda Md., USA. Protocols for receptor-based assays by the PDSP may be found on the website: http://pdsp.med.unc.edu/pdspw/binding.php and http://pdsp.med.unc.edu/pdspw/function.php (Apr. 30, 2008).
Radioligand competition binding assays were performed as previously described (Rothman, R. B., Baumann, M. H., Savage, J. E., Rauser, L., McBride, Hufeisen, S. J., Roth B. L. Circulation (2000) 102:2836-2841) for Compounds 7 and 16. Briefly, test compounds were dissolved to 10 mM in 100% DMSO, then diluted to the desired concentrations (spanning seven orders of magnitude) in Dopamine Binding Buffer (50 mM NaCl, 50 mM HEPES, 5 mM MgCl2, 0.5 mM EDTA, pH 7.4). Diluted test and reference compounds were added to wells containing radioligand ([^3H]SCH23390, 0.3 nM final concentration) and buffer, then membrane fractions from cells stably expressing cloned, human D1 or D5 receptors were added and binding was allowed to equilibrate at room temperature for 1.5 hours. At equilibrium, reactions were filtered (using a FilterMate 96-well harvester, PerkinElmer) onto GF-A glass fiber filters (Wallac) and allowed to dry. Meltilex scintillant (Wallac) was melted onto the dry filters, and then allowed to cool. Filters were then sealed in plastic bags and counted on a Wallac TriLux microbeta counter.
Raw data (dpm) representing total radioligand binding (i.e., specific+non-specific binding) were plotted as a function of the logarithm of the molar concentration of the competitor (i.e., test or reference compound). Non-linear regression of the normalized (i.e., percent radioligand binding compared to that observed in the absence of test or reference compound) raw data is performed in Prism 4.0 (GraphPad Software) using the built-in three parameter logistic model describing ligand competition binding to radioligand-labeled sites: y=bottom+[(top−bottom)/(1+10^x−logIC50)] where bottom equals the residual radioligand binding measured in the presence of 10 μM reference compound (i.e., non-specific binding) and top equals the total radioligand binding observed in the absence of competitor. The log IC50 (i.e., the log of the ligand concentration that reduces radioligand binding by 50%) is thus estimated from the data and used to obtain the Ki by applying the Cheng-Prusoff approximation: Ki=IC50/(1+[ligand]/KD) where [ligand] equals the assay radioligand concentration and KD equals the affinity constant of the radioligand for the target receptor.

[2] = system: metrazole-induced clonic seizures; experiment: Subcutaneous Metrazole Seizure Threshold Test (scMET), mice; assay type: in vivo; details: Mus musculus, sc, mice
How it was run: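 CF1 mice dosed with test compound at 30, 100 and 300 mg/kg; Sprague-Dawley rats at 50 mg/kg p.o. At compound TPE, metrazole at CD97 (85 mg/kg in mice) injected s.c. in the neck. Animals observed 30 min; endpoint is a 3-5 s clonic spasm episode.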

[3] = Acute toxicity, minimal motor impairment (rotorod), mice; assay type: in vivo; details: mice, rotorod
How it was run: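 Mice placed on a rod rotating at 6 rpm; a compound is scored toxic when the animal falls off three times within 1 min. In rats, minimal motor deficit is scored as ataxia, an abnormal uncoordinated gait.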

MES-induced seizures = experiment: Maximal Electroshock Seizure (MES) test, mice; assay type: in vivo; details: Mus musculus, ip, mice, i.p.
How it was run: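 Seizures were induced by a 60 Hz corneal current for 2 s (50 mA in CF1 mice, 150 mA in Sprague-Dawley rats). Mice received 30, 100 or 300 mg/kg i.p. in 0.5% methylcellulose and were tested at several intervals; rats received 30 mg/kg p.o. Protection means abolition of hind-limb tonic extension.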

[4] = background, previously made and tested; cited from earlier work
[5] = system: metabotropic glutamate receptors; details: background; cited from earlier work

T1 sequence (P21728 whole entry): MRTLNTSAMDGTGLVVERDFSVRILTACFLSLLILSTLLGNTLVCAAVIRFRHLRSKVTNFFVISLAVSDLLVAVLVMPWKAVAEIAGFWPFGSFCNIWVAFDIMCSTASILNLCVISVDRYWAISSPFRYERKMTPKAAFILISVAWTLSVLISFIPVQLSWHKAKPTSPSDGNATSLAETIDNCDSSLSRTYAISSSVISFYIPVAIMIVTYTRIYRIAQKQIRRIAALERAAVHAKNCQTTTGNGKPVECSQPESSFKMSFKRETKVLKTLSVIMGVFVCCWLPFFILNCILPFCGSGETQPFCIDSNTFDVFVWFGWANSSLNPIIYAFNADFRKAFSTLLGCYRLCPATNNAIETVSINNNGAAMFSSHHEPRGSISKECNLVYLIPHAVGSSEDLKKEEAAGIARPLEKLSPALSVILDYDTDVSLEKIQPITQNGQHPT

CCOC(=O)C1[C@H]2O[C@@H]3COC(C)(C)O[C@H]3C(=NO)[C@@H]12 (stereo partly drawn) [Compound 7, ethyl (4aR,5aS,6aR,7aS)-7-(hydroxyimino)-2,2-dimethylhexahydro-4H-cyclopropa[5,6]pyrano[3,2-d][1,3]dioxine-6-carboxylate]
Ki ([1]; D1 dopamine receptor, [3H]SCH23390 0.3 nM, Cheng-Prusoff): 6.23 µM
inhibition of the D1 dopamine receptor ([1]; radioligand competition binding): significant inhibition
responders at 30 mg/kg ([2]; 0.4 h, read-out: scMET 30 0.4 h (animals protected/tested)): 0%
responders at 30 mg/kg ([2]; 0.5 h, read-out: scMET 30 0.5 h (animals protected/tested)): 0%
responders at 100 mg/kg ([2]; 0.4 h, read-out: scMET 100 0.4 h (animals protected/tested)): 0%
responders at 100 mg/kg ([2]; 0.5 h, read-out: scMET 100 0.5 h (animals protected/tested)): 0%
responders at 300 mg/kg ([2]; 0.4 h, read-out: scMET 300 0.4 h (animals protected/tested)): 0%
responders at 300 mg/kg ([2]; 0.5 h, read-out: scMET 300 0.5 h (animals protected/tested)): 0%
TOX 30 0.5 h (animals toxic/tested) ([3]; 30 mg/kg, 0.5 h): 0/4
TOX 30 4 h (animals toxic/tested) ([3]; 30 mg/kg, 4 h): 0/2
TOX 100 0.5 h (animals toxic/tested) ([3]; 100 mg/kg, 0.5 h): 1/8
TOX 100 4 h (animals toxic/tested) ([3]; 100 mg/kg, 4 h): 0/4
TOX 300 0.5 h (animals toxic/tested) ([3]; 300 mg/kg, 0.5 h): 3/4
TOX 300 4 h (animals toxic/tested) ([3]; 300 mg/kg, 4 h): 1/2
responders at 30 mg/kg (MES-induced seizures; 0.5 h, read-out: MES 30 0.5 h (animals protected/tested)): 0%
responders at 30 mg/kg (MES-induced seizures; 4 h, read-out: MES 30 4 h (animals protected/tested)): 0%
responders at 100 mg/kg (MES-induced seizures; 0.5 h, read-out: MES 100 0.5 h (animals protected/tested)): 0%
responders at 100 mg/kg (MES-induced seizures; 4 h, read-out: MES 100 4 h (animals protected/tested)): 0%
responders at 300 mg/kg (MES-induced seizures; 0.5 h, read-out: MES 300 0.5 h (animals protected/tested)): 0%
responders at 300 mg/kg (MES-induced seizures; 4 h, read-out: MES 300 4 h (animals protected/tested)): 0%

CC1(C)OC[C@@H]2O[C@@]3(COS(N)(=O)=O)OC(C)(C)O[C@H]3[C@@H]2O1 [B]
anticonvulsant activity [4]: moderate anticonvulsant activity

CC1(C)O[C@@H]2[C@@H](CO[C@@]3(COS(N)(=O)=O)OC(C)(C)O[C@@H]23)O1 [topiramate]
anticonvulsant activity [4]: greater anticonvulsant activity

7-(hydroxyimino)cyclopropa[b]chromen-1a-carboxylate [Compound C]
agonist activity at metabotropic glutamate receptors [5]: active agonists

CNS(=O)(=O)OC[C@@]12OC[C@H]3OC(C)(C)O[C@H]3[C@@H]1OC(C)(C)O2 [A]
anticonvulsant activity [4]: moderate anticonvulsant activity
